Results on six compounds are retold here after the NIST ThermoML archive (doi:10.1016/j.fluid.2008.07.018).

Data set [1] in a line: refractive index (Na D-line) (dimensionless). The following applies: 298.15 K; 101.33 kPa; Liquid; Standard Abbe refractometry.
The conditions of data set [2]: Liquid; for mass density: 298.15 K, 101.33 kPa.

The structures appear in SMILES notation. ± gives the expanded uncertainty stated by the source.

As usually defined, the refractive index is the speed of light in vacuum divided by its phase velocity in the sample. By mass density is commonly meant the mass of a sample divided by its volume. As a reminder, the vapor or sublimation pressure is the pressure of vapour in equilibrium with the condensed phase.

For the compound `Clc1ccccc1` [chlorobenzene], in data set [1], the refractive index was found to be 1.5218 ± 0.0007. The mass density in data set [2] came out at 1106.3 ± 3.3 kg/m3. The “vapor or sublimation pressure” value in data set [2] (402.85 K) was 95.5 ± 4 kPa.

For `CC(=O)N(C)C` [N,N-dimethylethanamide], in data set [1], the refractive index is recorded as 1.4357 ± 0.0007. For the same compound, the mass density in data set [2] came to 936.3 ± 2.7 kg/m3.

On to `Nc1ccccc1` [aniline], for which the refractive index in data set [1] came out at 1.5836 ± 0.0007. Moreover, the mass density in data set [2] worked out at 1017.6 ± 3 kg/m3. Besides, the “vapor or sublimation pressure” value in data set [2] (455.25 K) is given as 95.5 ± 4 kPa.

Regarding `CN(C)C=O` [dimethylformamide], the refractive index in data set [1] was 1.4219 ± 0.0007. Moreover, the mass density in data set [2] is on record as 943.9 ± 1.6 kg/m3. The “vapor or sublimation pressure” value in data set [2] (424.35 K) is 95.5 ± 3.3 kPa.

`CC(=O)c1ccccc1` [acetophenone]: in data set [1], the refractive index was 1.5342 ± 0.0007. The mass density in data set [2] was found to be 1023.8 ± 3 kg/m3. For the same compound, the “vapor or sublimation pressure” value in data set [2] (472.55 K) amounted to 95.5 ± 4 kPa.

On to `Brc1ccccc1` [bromobenzene], for which the refractive index in data set [1] worked out at 1.5571 ± 0.0007. For the same compound, in data set [2], the mass density is 1488.1 ± 4.8 kg/m3. Moreover, the “vapor or sublimation pressure” value in data set [2] (427.05 K) is 95.5 ± 4 kPa.
